Measured values as given in patent US8163909B2, “Substituted hydroxyethyl amine compounds as beta-secretase modulators and methods of use” (Amgen Inc., priority 2007, dated 2012).
Where two headings read alike, the source gives them in different places.

Columns and labels:
[1] = Microsomal stability assay, human liver microsomes;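 note: pooled human liver microsomes at 0.25 mg/mL with 1 µM compound and NADPH at 37 °C, pH 7.4, for 30 min, unchanged parent quantified by LC-MS/MS against the 0 min sample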
[2] = molecular target: CYP2D6 (Homo sapiens, UniProt P10635); assay: CYP2D6 inhibition assay (bufuralol, pooled human liver microsomes)
CYP2D6, sequence (P10635 whole entry): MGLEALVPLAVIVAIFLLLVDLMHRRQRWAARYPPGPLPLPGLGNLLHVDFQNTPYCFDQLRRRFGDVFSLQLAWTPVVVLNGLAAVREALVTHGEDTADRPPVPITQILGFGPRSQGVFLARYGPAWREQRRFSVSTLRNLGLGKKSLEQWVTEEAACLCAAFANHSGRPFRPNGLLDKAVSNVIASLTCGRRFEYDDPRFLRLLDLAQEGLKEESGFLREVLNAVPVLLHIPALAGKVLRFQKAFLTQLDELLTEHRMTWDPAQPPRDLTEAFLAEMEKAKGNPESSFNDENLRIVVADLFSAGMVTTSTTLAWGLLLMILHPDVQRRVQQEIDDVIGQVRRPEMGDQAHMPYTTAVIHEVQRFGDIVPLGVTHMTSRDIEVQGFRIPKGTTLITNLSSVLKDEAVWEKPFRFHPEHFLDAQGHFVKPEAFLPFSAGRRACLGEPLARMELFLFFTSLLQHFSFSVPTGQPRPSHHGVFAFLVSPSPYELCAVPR

[3] = Microsomal stability assay, rat liver microsomes;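 note: rat liver microsomes (0.25 mg/mL) with about 1 µM compound plus 1 mM NADPH, pH 7.4, 37 °C for 30 min, parent left measured by LC-MS/MS against 0 min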
[4] = molecular target: Beta Secretase enzyme (BACE) (Homo sapiens, UniProt P56817); assay: In vitro enzymatic BACE FRET (fluorescence resonance energy transfer) assay; type: biochemical;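 note: fluorescence read after 1 h with 50 nM quenched peptide substrate spanning the BACE cleavage site, in pH 4.2 acetate buffer containing 10% DMSO and nonionic detergent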
Beta Secretase enzyme (BACE), sequence (P56817 46-501): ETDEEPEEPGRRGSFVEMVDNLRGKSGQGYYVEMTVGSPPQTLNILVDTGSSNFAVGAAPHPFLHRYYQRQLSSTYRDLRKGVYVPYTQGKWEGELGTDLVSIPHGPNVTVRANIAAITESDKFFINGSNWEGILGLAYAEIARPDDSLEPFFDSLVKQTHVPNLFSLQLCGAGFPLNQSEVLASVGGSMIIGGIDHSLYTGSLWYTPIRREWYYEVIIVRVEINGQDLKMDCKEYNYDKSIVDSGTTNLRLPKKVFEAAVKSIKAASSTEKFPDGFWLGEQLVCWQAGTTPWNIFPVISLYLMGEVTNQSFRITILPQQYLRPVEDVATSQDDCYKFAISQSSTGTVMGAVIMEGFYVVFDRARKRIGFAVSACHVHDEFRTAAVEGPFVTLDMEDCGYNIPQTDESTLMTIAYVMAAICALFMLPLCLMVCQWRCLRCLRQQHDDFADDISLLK

[5] = molecular target: CYP3A4 (CYP3A) (Homo sapiens, UniProt P08684); assay: in vitro; details: microsomes, pH 7.4;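 note: inhibition of CYP3A-mediated 1-hydroxymidazolam formation after 10 min incubation with NADPH, quantified by HPLC MS relative to metabolite produced without test compound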
CYP3A4 (CYP3A), sequence (P08684 2-503): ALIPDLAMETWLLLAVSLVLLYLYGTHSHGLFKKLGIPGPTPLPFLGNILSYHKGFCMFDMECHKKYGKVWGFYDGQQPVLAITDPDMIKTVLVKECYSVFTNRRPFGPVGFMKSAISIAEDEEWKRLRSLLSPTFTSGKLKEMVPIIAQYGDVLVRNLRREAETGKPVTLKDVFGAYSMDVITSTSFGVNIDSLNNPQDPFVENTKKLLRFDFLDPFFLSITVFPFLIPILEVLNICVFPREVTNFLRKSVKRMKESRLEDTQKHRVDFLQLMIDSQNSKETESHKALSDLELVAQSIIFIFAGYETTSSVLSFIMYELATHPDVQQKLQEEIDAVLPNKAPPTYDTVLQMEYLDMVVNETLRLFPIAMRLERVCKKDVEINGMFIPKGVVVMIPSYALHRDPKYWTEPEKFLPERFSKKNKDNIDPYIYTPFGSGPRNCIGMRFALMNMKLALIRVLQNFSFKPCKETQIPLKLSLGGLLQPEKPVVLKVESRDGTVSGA

[6] = test system: Aβ40 in conditioned medium of cells stably expressing Amyloid Precursor Protein (APP); assay: In vitro BACE cell-based assay (Aβ40 in conditioned medium, sandwich ELISA); details: Homo sapiens;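 note: compounds added as a dilution series, secreted peptide quantified by europium time-resolved fluorescence readout, potency fitted from percent of control versus compound concentration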
[7] = 2D6 IC50 (uM), CYP enzyme inhibition
[8] = BACE enzyme assay, read-out: BACE1 FRET assay
[9] = HEK293, HEK cells, read-out: HEK cell assay
[10] = BACE enzyme assay, IC50's in uM, read-out: BACE1 FRET assay
[11] = HEK293, HEK cell-based assay, IC50's in uM, read-out: HEK cell assay
[12] = read-out: BACE1 FRET assay (IC50)
[13] = HEK293, HEK cells, read-out: HEK cell assay (IC50)

Row | SMILES | HLM ([1]; human liver microsomal data) [µL/min/mg] | IC50 [2, 7] [µM] | RLM ([3]; rat liver microsomal data) [µL/min/mg] | IC50 [4, 8] [µM] | IC50 [5] [nM] | IC50 [6, 9] [µM] | IC50 [4, 10] [µM] | IC50 [6, 11] [µM] | HLM ([1]; human liver microsomes) [µL/min/mg] | IC50 ([2]; 2D6 IC50, CYP2D6 inhibition) [µM] | RLM ([3]; rat liver microsomes) [µL/min/mg] | IC50 [4, 12] [µM] | IC50 [6, 13] [µM] | IC50 ([2]; 2D6 IC50 (uM), CYP2D6 inhibition) [µM] | IC50 ([4]; BACE enzyme assay IC50, read-out: BACE1 FRET assay) [µM] | IC50 ([6]; HEK293, HEK cell-based assay IC50, read-out: HEK cell assay) [µM]
1 | CO[C@H](C)C(=O)N[C@@H](Cc1cccc(F)c1)[C@H](O)CN[C@@H]1CC2(CCC2)Oc2c1cc(CC(C)(C)C)nc2-n1ccnc1 [compound 501] | 86 | 2.8 | 175 | 5.3 | 100 | > 10 |  |  |  |  |  |  |  |  |  | 
2 | CC(=O)N[C@@H](Cc1ccc(F)cc1)[C@H](O)CN[C@H]1CC2(CCC2)Oc2c1cc(CC(C)(C)C)nc2N1CCOCC1 [Example 421, N-((2S,3R)-4-((S)-2,2-spirocyclobutyl-8-morpholino-6-neopentyl-3,4-dihydro-2H-pyrano[2,3-c]pyridin-4-ylamino)-1-(4-fluorophenyl)-3-hydroxybutan-2-yl)acetamide] | 211 | 3.6 | 151 | 0.134 | 1300 | 0.054 |  |  |  |  |  |  |  |  |  | 
3 | CC#Cc1cccc(C[C@H](NC(=O)COC)[C@H](O)CN[C@H]2CC3(CCC3)Oc3ncc(CC(C)C)cc32)c1 [compound 802] | 60.5 | 2.15 | 191 |  | 100 |  | 0.005 | 0.032 |  |  |  |  |  |  |  | 
4 | COCC(=O)N[C@@H](Cc1cc(F)cc(-c2ccncc2)c1)[C@H](O)CN[C@H]1CC2(CCC2)Oc2ncc(CC(C)(C)C)cc21 [compound 613] |  |  |  |  | 160 |  |  |  | 228 | 0.3 | 142 | 0.02 | 0.011 |  |  | 
5 | CO[C@H](C)C(=O)N[C@@H](Cc1cc(F)cc(-c2nccs2)c1)[C@H](O)CN[C@H]1CC2(CCC2)Oc2ncc(CC(C)(C)C)cc21 [compound 738, (2R)-N-((1S,2R)-3-(((4′S)-6′-(2,2-dimethylpropyl)-3′,4′-dihydrospiro[cyclobutane-1,2′-pyrano[2,3-b]pyridin]-4′-yl)amino)-1-(3-fluoro-5-(1,3-thiazol-2-yl)benzyl)-2-hydroxypropyl)-2-methoxypropanamide] |  |  |  |  | ≤ 30 |  |  |  | 50 |  | 59 |  |  | 0.6 | 0.008 | 0.01
6 | COCC(=O)N[C@@H](Cc1cc(F)cc(F)c1)[C@H](O)CN[C@H]1CC2(CCC2)Oc2c(-c3ccncc3)cc(CC(C)C)cc21 [compound 586] |  |  |  |  | 100 |  |  |  | 31 | 1.3 | 65 | 0.009 | 0.006 |  |  | 
7 | CC(=O)N[C@@H](Cc1ccc(F)c(-c2ccncc2)c1)[C@H](O)CN[C@H]1CC2(CCC2)Oc2ccc(CC(C)(C)C)cc21 [compound 625] |  |  |  |  | 160 |  |  |  | 389 | 0.2 | 330 | 0.042 | 0.057 |  |  | 
8 | COCC(=O)N[C@@H](Cc1cccc(-c2nccs2)c1)[C@H](O)CN[C@@H]1C[C@@]2(CCOC2)Oc2ncc(CC(C)(C)C)cc21 [compound 827, N-((1S,2R)-3-(((3S,4′R)-6′-(2,2-dimethylpropyl)-3′,4,4′,5-tetrahydrospiro[furan-3,2′-pyrano[2,3-b]pyridin]-4′-yl)amino)-2-hydroxy-1-(3-(1,3-thiazol-2-yl)benzyl)propyl)-2-methoxyacetamide] | 97 | 2.1 | 197 |  | 500 |  | 0.006 | 0.007 |  |  |  |  |  |  |  | 
9 | CC(C)Cc1cnc2c(c1)[C@@H](NC[C@@H](O)[C@H](Cc1ccc3c(c1)OCO3)NC(=O)[C@H](C)F)CC1(CCC1)O2 [compound 552] | 73 | 2.3 | 253 | 0.049 | 200 | 0.369 |  |  |  |  |  |  |  |  |  | 
10 | CC#Cc1ccc2c(c1)[C@@H](NC[C@@H](O)[C@H](Cc1cc(F)cc(-c3nccs3)c1)NC(=O)COC)CC1(CCC1)O2 [compound 806] | 61 | 0.6 | 92 |  | 200 |  | 0.669 | 4.15 |  |  |  |  |  |  |  | 
